{
  "source": "patent US20230333121A1",
  "about": "“METHODS AND COMPOSITIONS RELATING TO BIOMARKERS FOR NEURODEGENERATIVE DISEASES” (ANACALYPSIS THERAPEUTICS, IKE, priority 2020, published 2023)",
  "target": "T1, pS935-LRRK2 (Homo sapiens, UniProt Q5S007)",
  "T1 construct": "fresh PBMCs from healthy volunteer donors; endogenous in cells; host or cells: fresh and cryopreserved PBMCs from healthy volunteer donors",
  "T1 sequence (Q5S007 whole entry)": "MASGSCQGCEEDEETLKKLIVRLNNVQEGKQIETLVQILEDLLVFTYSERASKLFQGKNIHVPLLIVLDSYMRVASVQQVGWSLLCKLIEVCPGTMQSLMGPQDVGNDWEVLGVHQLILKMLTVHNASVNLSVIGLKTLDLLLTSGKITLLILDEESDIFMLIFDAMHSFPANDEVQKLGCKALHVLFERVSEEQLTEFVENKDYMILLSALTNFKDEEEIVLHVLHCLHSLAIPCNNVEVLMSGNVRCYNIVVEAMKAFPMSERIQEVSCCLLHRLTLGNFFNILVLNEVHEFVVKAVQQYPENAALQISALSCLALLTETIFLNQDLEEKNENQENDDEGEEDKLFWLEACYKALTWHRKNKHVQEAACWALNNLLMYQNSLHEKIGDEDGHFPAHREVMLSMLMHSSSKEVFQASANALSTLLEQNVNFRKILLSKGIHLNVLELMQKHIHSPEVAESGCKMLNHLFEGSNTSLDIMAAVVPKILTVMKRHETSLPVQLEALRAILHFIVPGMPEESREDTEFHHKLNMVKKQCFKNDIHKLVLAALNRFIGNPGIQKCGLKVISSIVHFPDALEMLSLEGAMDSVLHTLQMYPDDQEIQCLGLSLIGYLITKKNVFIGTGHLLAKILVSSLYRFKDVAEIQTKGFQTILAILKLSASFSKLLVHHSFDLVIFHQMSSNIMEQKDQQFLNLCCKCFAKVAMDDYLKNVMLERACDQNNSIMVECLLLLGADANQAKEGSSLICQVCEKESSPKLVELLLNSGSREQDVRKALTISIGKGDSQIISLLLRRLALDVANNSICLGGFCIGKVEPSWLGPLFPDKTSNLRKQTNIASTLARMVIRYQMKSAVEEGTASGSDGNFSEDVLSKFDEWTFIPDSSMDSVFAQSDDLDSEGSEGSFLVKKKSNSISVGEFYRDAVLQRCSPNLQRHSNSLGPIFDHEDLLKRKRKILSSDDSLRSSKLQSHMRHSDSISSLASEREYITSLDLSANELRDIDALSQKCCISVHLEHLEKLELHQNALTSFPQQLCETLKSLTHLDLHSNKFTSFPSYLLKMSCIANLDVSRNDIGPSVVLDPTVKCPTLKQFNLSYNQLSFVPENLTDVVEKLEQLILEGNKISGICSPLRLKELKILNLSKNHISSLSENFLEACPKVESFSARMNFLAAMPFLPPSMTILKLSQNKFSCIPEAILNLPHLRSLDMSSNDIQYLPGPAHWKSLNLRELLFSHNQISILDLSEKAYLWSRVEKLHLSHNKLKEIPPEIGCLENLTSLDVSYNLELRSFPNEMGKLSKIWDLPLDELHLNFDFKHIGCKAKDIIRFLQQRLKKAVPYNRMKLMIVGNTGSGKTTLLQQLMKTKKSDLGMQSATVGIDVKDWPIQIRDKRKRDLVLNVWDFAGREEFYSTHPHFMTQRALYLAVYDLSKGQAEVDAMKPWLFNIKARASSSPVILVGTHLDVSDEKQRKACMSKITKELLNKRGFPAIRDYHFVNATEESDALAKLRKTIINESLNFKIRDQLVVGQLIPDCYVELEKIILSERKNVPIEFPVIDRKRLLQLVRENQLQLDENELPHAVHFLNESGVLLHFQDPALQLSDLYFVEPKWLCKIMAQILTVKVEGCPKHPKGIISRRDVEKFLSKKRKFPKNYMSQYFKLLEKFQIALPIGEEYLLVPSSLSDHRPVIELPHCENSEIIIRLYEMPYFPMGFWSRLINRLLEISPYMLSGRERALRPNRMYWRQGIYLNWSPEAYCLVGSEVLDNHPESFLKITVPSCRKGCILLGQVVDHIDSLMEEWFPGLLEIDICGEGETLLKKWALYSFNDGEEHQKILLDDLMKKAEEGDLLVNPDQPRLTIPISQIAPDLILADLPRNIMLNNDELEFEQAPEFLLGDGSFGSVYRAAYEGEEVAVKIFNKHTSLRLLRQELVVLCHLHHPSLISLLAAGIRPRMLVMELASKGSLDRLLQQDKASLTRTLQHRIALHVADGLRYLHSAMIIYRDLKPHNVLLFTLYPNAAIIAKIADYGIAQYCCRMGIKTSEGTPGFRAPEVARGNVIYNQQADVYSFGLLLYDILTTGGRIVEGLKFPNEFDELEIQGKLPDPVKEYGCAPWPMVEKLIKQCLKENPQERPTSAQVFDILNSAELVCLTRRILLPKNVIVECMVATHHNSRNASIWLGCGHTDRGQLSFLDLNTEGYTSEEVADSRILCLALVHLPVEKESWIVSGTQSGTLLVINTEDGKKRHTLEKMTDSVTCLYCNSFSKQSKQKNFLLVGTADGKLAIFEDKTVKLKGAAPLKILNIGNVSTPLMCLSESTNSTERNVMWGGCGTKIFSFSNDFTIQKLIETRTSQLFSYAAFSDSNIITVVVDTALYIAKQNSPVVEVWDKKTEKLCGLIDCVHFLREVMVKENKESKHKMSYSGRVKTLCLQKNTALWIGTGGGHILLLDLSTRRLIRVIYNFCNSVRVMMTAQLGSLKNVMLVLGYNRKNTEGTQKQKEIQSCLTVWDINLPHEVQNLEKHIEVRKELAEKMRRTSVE",
  "assay": "pS935-LRRK2 ELISA on freshly isolated PBMCs from healthy volunteers",
  "type": "cell-based",
  "settings": "increasing concentrations, 1 hour (FIG. 3C)",
  "protocol": "Phosphorylation of LRRK2 at the Ser935 residue by ELISA was assessed. For each sample, the signal corresponding to pS935-LRRK2 was normalized to its corresponding value of total LRRK2 (in ng/ml). Increasing amounts of recombinant human full-length LRRK2 was bound to parallel ELISA plates using the c41-2 clone for capture, and detected using total (N241A; for normalization) or phosphorylated (pS935-LRRK2, UDD2) antibodies (FIG. 3A). […] Freshly isolated PBMCs from healthy volunteers were treated with increasing concentrations of the kinase inhibitor PF-475 for 1 hour, and subjected to pS935-LRRK2 ELISA (FIG. 3C). […] In contrast, in PBMC extracts from carriers of the G2019S mutation, with and without PD, there was a non-significant trend towards lower levels of pS935-LRRK2 compared to healthy controls (FIG. 3E). The values of all G2019S carriers are pooled for comparison against healthy controls (FIG. 3F). Levels of pS935-LRRK2 and various clinical parameters were compared (FIG. 3G). In iPD patients, there was no correlation between pS935-LRRK2 and the motor function scale UPDRS-III (not shown); however, performance on the cognitive function test, MoCA, was negatively correlated with pS935-LRRK2 levels in iPD patients (FIG. 3G; right panel) and healthy controls (FIG. 3G; center panel).",
  "data": [
    {"smiles": "N#Cc1cccc(-c2c[nH]c3ncnc(N4CCOCC4)c23)c1", "note": "[PF-475]", "values": [
      {"measurement": "phosphorylated LRRK2 (pS935-LRRK2) level", "value": "significant dose-dependent loss"}
    ]}
  ]
}
